The subject of data set [1] is CCF-STTG1 cells. Put plainly: CCK-8 viability assay in CCF-STTG1. It counts as cell-based, human. Conditions: for concentration with highly significant cytotoxic effects / IC50: CCF-STTG1, 48 h; for IC50: Homo sapiens, CCK-8, read-out: IC50 (cellular viability). On the procedure: (§1) To test the viability and to define the working range for later transport studies ENN B/ENN B1 stock solutions in ACN were diluted to the respective concentrations with serum free culture medium (1% ACN). An astrocytoma cell line, CCF-STTG1 (ATCC, Manassas, USA), and HBMEC cell line (human brain microvascular endothelial cells, kindly provided by Prof. Dr. Karch, Institute of Hygiene, University of Muenster (WWU Muenster)) were cultivated in RPMI 1640 medium supplemented with 100 U/mL penicillin, 100 μg/mL streptomycin, 2 mM L-glutamine and 10% (v/v) fetal calf serum (FCS) (medium for HBMEC additionally supplemented with 1 mM Na-pyruvate) using standardized culture conditions (37°C, 5% CO2, saturated humidified atmosphere). Culture medium was changed every 2–3 d, and the cells were subcultivated after trypsination when they reached a microscopic confluence of approximately 80%. For the evaluation of cytotoxic effects of ENN B and B1 in CCF-STTG1 and HBMEC, Cell Counting Kit-8 (CCK-8, Dojindo Laboratories, Tokyo Japan) was applied. The assay was performed according to the manufacturer’s instructions with slight modifications.
Briefly, the cells were seeded in 96-well tissue culture plates in a density of 1 × 10^4 cells/well (CCF-STTG1) and 4 × 10^3 cells/well (HBMEC), respectively. The cells were allowed to grow for 24 h, then the culture medium was replaced by serum free medium (100 μL/well), and the cells were cultivated for another 24 h (37°C, 5% CO2, saturated humidified atmosphere) before treatment. The cells were treated with ENN B and ENN B1 in a concentration range from 0.1 μM to 10 μM and were incubated for 48 h. After toxin exposure, the toxin solution was exchanged with a dye solution WST-8 (CCK-8 solution, water soluble tetrazolium salt-8, 2-(2-methoxy-4-nitrophenyl)-3-)4-nitrophenyl)-5-(2,4-disulfophenyl)-2H-tetrazolium monosodium salt), 1:10 diluted with fresh serum free medium, which was added to the cells followed by incubation for 60 min at 37°C. WST-8 dye is reduced to a water-soluble formazan by cellular dehydrogenases of viable cells, which increases the absorbance at λ = 457 nm and was measured with an Infinite M200 PRO microplate reader with Tecan i-control software version 1.7.1.12 (Tecan, Crailsheim, Germany). The amount of formazan generated by the activity of dehydrogenases in cells is directly proportional to the number of viable cells per well. The results are normalized to a solvent treated negative control (1% ACN).
(In general: Tetrazolium dyes change colour on reduction, which living cells bring about.)

Data set [2] is described as follows: Pig feeding study, plasma concentration. In kind it is in vivo. Conditions: worst case contamination 5.8 mg/kg ENN B, 18.3 mg/kg ENN B1.
In data set [3] the test system is PBCEC. Description: CCK-8 viability assay in PBCEC. The note with it: 48 h; for cytotoxic effects: 1 μM. It counts as cell-based, porcine. On the procedure: (§2) Primary porcine brain capillary endothelial cells (PBCEC) were kindly provided by the group of Prof. Dr. Langer, Institute of Pharmaceutical Technology, WWU Münster. Cellular viability was tested after treatment for 48 h using the CCK-8 assay, like applied for the cell lines but with minor modifications. Based on earlier protocols for the cultivation of PBCEC, the cryopreserved PBCEC were thawed at 37°C in a water bath, gently resuspended in culture medium (Medium 199 Earle’s with 100 U/mL penicillin, 100 μg/mL streptomycin, 100 μg/mL gentamycin, 4.1 mM L-glutamine and 10% fetal calf serum) and centrifugated at 220 × g at 20°C for 10 min. After removal of the supernatant, fresh complete medium was added and the cell pellet was resuspended twice and diluted to desired cell density. The cells were seeded on rat tail collagen coated 96-well tissue culture plates with 100 μL of the cell suspension per well. PBCEC were allowed to grow for 48 h at 37°C, 5% CO2 under saturated humidified conditions. Complete medium was exchanged for serum free medium (DMEM/Ham’s F-12 1:1 with 100 U/mL penicillin, 100 μg/mL streptomycin, 100 μg/mL gentamycin, 0.7 mM L-glutamine and 550 nM hydrocortisone (Sigma-Aldrich, Steinheim, Germany)). On day 5 in culture (96 h after seeding) half of the medium (50 μL) was removed and exchanged with 50 μL double concentrated ENN solution to reach the desired final concentrations in a concentration range from 0.1 μM to 10 μM. The cells were treated with the test substances in concentrations from 0.1 to 10 μM for 48 h. Due to the sensitivity of the primary cells, after completion of 48 h, the incubation medium was not exchanged but each well was supplemented with 10 μL of the CCK-8 solution and incubated for 70 min at 37°C, 5% CO2 in a saturated humidified atmosphere. Then the absorbance of the generated formazan dye was measured at 457 nm with 650 nm as reference wavelength. After subtracting the reference absorption as well as a blank absorption without cells, the viabilities were normalized to a solvent treated negative control (1% ACN).

A short description of data set [4]: CCK-8 viability assay in PBCEC. It counts as cell-based, porcine. The note with it: pig, primary porcine brain capillary endothelial cells (PBCEC). The procedure: as §2
The subject of data set [5] is HepG2. Also on record: method as in PMID 21640785. Conditions: cited from earlier work.
Data set [6] concerns Caco-2. The note with it: cited from earlier work; for absorption: Caco-2, 4 h exposure; for duodenal bioavailability in vitro: Caco-2 model, 48 h.
The test system of data set [7] is HT-29. Also on record: method as in PMID 21640785. The note with it: HT-29, 48 h; cited from earlier work.
The subject of data set [8] is HBMEC. Put plainly: CCK-8 viability assay in HBMEC. It counts as cell-based, human. Conditions: 0.1 μM to 10 μM, 48 h. On the procedure: as §1, with “For the evaluation of cytotoxic effects of ENN B and B1 in CCF-STTG1 and HBMEC, Cell Counting Kit-8 (CCK-8, Dojindo Laboratories, Tokyo Japan) was applied. The assay was performed according to the manufacturer’s instructions with slight modifications.” left out
Briefly, the cells were seeded in 96-well tissue culture plates in a density of 1 × 10^4 cells/well (CCF-STTG1) and 4 × 10^3 cells/well (HBMEC), respectively. […] WST-8 dye is reduced to a water-soluble formazan by cellular dehydrogenases of viable cells, which increases the absorbance at λ = 457 nm and was measured with an Infinite M200 PRO microplate reader with Tecan i-control software version 1.7.1.12 (Tecan, Crailsheim, Germany). […]

The test system of data set [9] is MRC-5 cells. Also on record: method as in PMID 16730043. The note with it: MRC-5, 24 h, Alamar Blue; cited from earlier work. A general note: The colour change of resazurin is a common sign of viable cells or microbes.

Values joined by “and” are separate entries in the source; they are usually repeats but may differ in a detail not shown here. Identical values can stand only once. Like-named read-outs stand apart in the source and are kept apart here. A value given as a limit tells only on which side of the number the result lay.

As usually defined, the IC50 is the concentration needed to halve the response being measured. For orientation: viability means a per cent measure of how many cells are alive, often set against a control. Regarding `CC[C@H](C)[C@H]1C(=O)O[C@H](C(C)C)C(=O)N(C)[C@@H](C(C)C)C(=O)O[C@H](C(C)C)C(=O)N(C)[C@@H](C(C)C)C(=O)O[C@H](C(C)C)C(=O)N1C` [ENN B1, enniatin B1], the effect on viability result in [1] (CCF-STTG1, 0.1 μM and 1 μM, 48 h) is “weak but significant effects”. Moreover, the “concentration with highly significant cytotoxic effects” value in [1] was at least 2500 nM. The half-inhibitory concentration (IC50) was 4.4 µM in [1], 8.5 µM in [5] (read-out: IC50), 3.7 µM in data set [7] and 4.7 µM in data set [9]. Also, in data set [2], the theoretical plasma levels is 0.641 μg/mL and 0.980 μM. Further, the cytotoxic effects result in [3] is “did not show any cytotoxic effects”. The “concentration with highly significant cytotoxicity” value in data set [3] is at least 2500 nM. The viability at 48 h, 10 µM in data set [4] (10 μM, read-out: relative viability) is 64%. In addition, the absorption in [6] is on record as above 65%. Besides, the “duodenal bioavailability in vitro” value in data set [6] is recorded as above 50%. Also, in [8], the “effect on viability compared to solvent control” value is “no effect on viability”.

For the compound `CC(C)[C@H]1C(=O)O[C@H](C(C)C)C(=O)N(C)[C@@H](C(C)C)C(=O)O[C@H](C(C)C)C(=O)N(C)[C@@H](C(C)C)C(=O)O[C@H](C(C)C)C(=O)N1C` [ENN B, enniatin B], in data set [1], the “concentration with highly significant cytotoxic effects” value was at least 5000 nM and the IC50 is 8.9 µM. Besides, the theoretical plasma levels in data set [2] is 0.423 μg/mL and 0.662 μM. In [3], the cytotoxic effects result was “did not show any cytotoxic effects” and the “concentration with highly significant cytotoxicity” value is recorded as “above 5 μM”. Moreover, the viability at 48 h in data set [4] (concentrations above 5 μM, read-out: cellular viability, minimum) is 70%. The IC50 entry in [5] was “no IC50 could be calculated”. Moreover, in [6], the absorption is above 65% and the “duodenal bioavailability in vitro” value was above 50%. For the same compound, the IC50 in data set [7] is 2.8 µM. Besides, the “effect on viability compared to solvent control” value in [8] is recorded as “no effect on viability”. For the same compound, in [9], the half-inhibitory concentration (IC50) is 9.8 µM.
